Laboratory results from PMC7522982, “PKIS deep dive yields a chemical starting point for dark kinases and a cell active BRSK2 inhibitor” (Scientific Reports, 2020).

Columns and labels:
[1] = test system: 17 different cancer and normal cell lines; assay: cell growth, deep dye drop method; assay type: cell-based; details: 1 μM for 72 h; 17 cancer and normal cell lines; deep dye drop method (N = 2)
Description: (A) Structure of GW296115. […] Cell lines in the panel were treated with 1 μM GW296115 for 72 h (N = 2) and analyzed using the deep dye drop method. MCF10A and MRC-5 are non-malignant cell lines. […] Coral was used to make (C): https://phanstiel-lab.med.unc.edu/CORAL.
This compound was further profiled in 17 different cancer and normal cell lines to determine whether it impacted cell growth when treated at 1 μM for 72 h. […] Here we further explore the target engagement characteristics of GW296115 in vitro and in cells and capture its specificity for the CAMK family of kinases.

RPS6KA3/RSK2 = assay: DiscoverX scanMAX competition binding assay; design: species or system human
From the text: Based on its narrow profile when tested in the combined Nanosyn and TSA panels, GW296115 was included in the recently released Kinase Chemogenomic Set (KCGS)[15]. All of the data presented in the Introduction section was collected prior to the inclusion of GW296115 in KCGS and everything that follows has been subsequently generated. Since its inclusion in PKIS and more recently KCGS, we have carried out a broader round of screening at DiscoverX. This profiling data has not been previously released and is reported here for the first time. GW296115 was profiled against 403 wild type human kinases at 1 μM using the DiscoverX scanMAX screening platform, which employs an active site-directed competition binding assay to quantitatively measure interactions between test compounds and kinases, [16]. GW296115 inhibited 25 kinases > 90% at 1 μM, resulting in a selectivity index (S10) of 0.062 at 1 μM (Table S2, Fig. 1C)[17].
The scanMAX assays were performed at Eurofins DiscoverX Corporation as previously described.

[2] = test system: panel of 224 recombinant kinases; design: method as in PMID 26501955; details: Nanosyn; cited from earlier work
STK17B/DRAK2 = biological target: T1, STK17B/DRAK2 (Homo sapiens, UniProt O94768); design: purchased Eurofins; method as in earlier work; details: cited from earlier work
T1 sequence (O94768 1-372): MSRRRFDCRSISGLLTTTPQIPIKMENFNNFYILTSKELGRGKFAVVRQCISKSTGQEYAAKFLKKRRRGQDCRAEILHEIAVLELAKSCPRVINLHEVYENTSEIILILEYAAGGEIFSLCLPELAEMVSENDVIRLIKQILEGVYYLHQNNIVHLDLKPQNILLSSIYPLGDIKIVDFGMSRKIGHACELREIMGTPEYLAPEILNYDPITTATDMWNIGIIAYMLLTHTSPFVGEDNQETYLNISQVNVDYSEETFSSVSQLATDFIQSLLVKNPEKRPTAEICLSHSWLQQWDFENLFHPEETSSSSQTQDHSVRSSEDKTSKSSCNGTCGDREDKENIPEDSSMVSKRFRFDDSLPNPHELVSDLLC

COc1ccc2[nH]c3c4[nH]c5ccc(OC)cc5c4c4c(c3c2c1)C(=O)NC4=O [GW296115]
effect on cell growth [1]: did not impact cell growth
DiscoverX % Inhibition at 1 μM (RPS6KA3/RSK2): 84%
inhibition at 100 nM of the 3 kinases inhibited > 90% at 1 μM [2]: > 70%
TSA ΔTm at 10 μM (°C) (STK17B/DRAK2): 18.3 °C
